Assay [1] addresses rat orexin 1 receptor (Rattus norvegicus, UniProt P56718). Put plainly: Rat orexin 1 receptor radioligand binding (competitive, HEK293 membranes). The following applies: rat OX1 receptor binding; averages from between 2-20 runs; read-out: rOX1 Ki. The method, then: (§1) The in vitro affinity of the compounds of the invention for the rat/human orexin 1 and human orexin 2 receptors was determined by competitive radioligand binding using [^3H]
(§2) Data are analyzed using pc-Sandy macro and graphed on Graphpad Prism 5. For analysis, each concentration point is averaged from triplicate values and the averaged values are plotted on Graphpad Prism. The IC50 was determined by applying the following equation (GraphPad Prism 5.0, SanDiego) for one site competition where X=log (concentration) and Y=specific binding. […] Graphpad Prism calculates Ki value from IC50 and the pre-determined Kd values for [^3H]-(1-(5-(2-fluoro-phenyl)-2-methyl-thiazol-4-yl)-1-((S)-2-(5-phenyl-(1,3,4)oxadiazol-2-ylmethyl)-pyrrolidin-1-yl)-methanone) and [3H]-EMPA. […]
(§3) After centrifugation (2K×G, 5 min at 4° C.), the supernatant was aspirated and the pellets frozen and stored at −80° C. […] Total and nonspecific binding was determined in the absence and presence of 10 μM almorexant. […] Plates were dried in 55° C. oven for 60 min, scintillation fluid was added, and the radioactivity was counted on a Topcount (Packard).

The target of assay [2] is human orexin 1 receptor (Homo sapiens (Human), UniProt O43613). Briefly: Human orexin 1 receptor radioligand binding (competitive, CHO membranes). As to conditions: human OX1 receptor binding; averages from between 2-20 runs; read-out: hOX1 Ki. The procedure:
as §1, §2, §3

Assay [3] addresses human orexin 2 receptor (Homo sapiens (Human), UniProt O43614). Put plainly: Human orexin 2 receptor radioligand binding ([3H]-EMPA, HEK293 membranes). As to conditions: human OX2 receptor binding; averages from between 2-20 runs; read-out: hOX2 Ki. The procedure: as §1, §2
HEK293 stably expressing human orexin 2 receptor (Genebank accession number NM_001526) were grown to confluency in DMEM (Hyclone, cat #SH30022), 10% FBS, 1×Pen/Strep, 1× NaPyruvate, 10 mM HEPES, 600 ug/ml G418 media on 150 cm^2 tissue culture plates, washed with 5 mM EDTA in PBS (HyClone Dulbecco's Phosphate Buffered Saline 1× with Calcium and Magnesium, Cat #SH30264.01, hereafter referred to simply as PBS) and scraped into 50 ml tubes. […] Total and nonspecific binding was determined in the absence and presence of 10 μM almorexant. […]

Here are results for one compound from patent publication US10183953B2, “Substituted 2-azabicycles and their use as orexin receptor modulators” (Janssen Pharmaceutica NV, priority 2013, dated 2019).

As a reminder, the Ki is a measure of affinity in units of concentration, obtained from inhibition or displacement.

Chain of human orexin 1 receptor (O43613 whole entry): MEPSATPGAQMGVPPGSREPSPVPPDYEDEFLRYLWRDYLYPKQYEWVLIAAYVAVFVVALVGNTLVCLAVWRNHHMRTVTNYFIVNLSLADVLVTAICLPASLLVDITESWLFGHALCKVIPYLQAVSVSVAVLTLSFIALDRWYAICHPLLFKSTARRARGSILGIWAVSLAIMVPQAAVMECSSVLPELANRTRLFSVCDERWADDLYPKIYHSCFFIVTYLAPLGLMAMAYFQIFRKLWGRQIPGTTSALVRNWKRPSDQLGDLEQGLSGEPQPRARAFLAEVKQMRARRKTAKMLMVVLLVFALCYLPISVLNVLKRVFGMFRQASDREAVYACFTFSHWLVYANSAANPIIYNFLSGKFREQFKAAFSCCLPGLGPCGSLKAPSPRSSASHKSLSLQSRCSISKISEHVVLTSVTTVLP
Chain of human orexin 2 receptor (O43614 whole entry): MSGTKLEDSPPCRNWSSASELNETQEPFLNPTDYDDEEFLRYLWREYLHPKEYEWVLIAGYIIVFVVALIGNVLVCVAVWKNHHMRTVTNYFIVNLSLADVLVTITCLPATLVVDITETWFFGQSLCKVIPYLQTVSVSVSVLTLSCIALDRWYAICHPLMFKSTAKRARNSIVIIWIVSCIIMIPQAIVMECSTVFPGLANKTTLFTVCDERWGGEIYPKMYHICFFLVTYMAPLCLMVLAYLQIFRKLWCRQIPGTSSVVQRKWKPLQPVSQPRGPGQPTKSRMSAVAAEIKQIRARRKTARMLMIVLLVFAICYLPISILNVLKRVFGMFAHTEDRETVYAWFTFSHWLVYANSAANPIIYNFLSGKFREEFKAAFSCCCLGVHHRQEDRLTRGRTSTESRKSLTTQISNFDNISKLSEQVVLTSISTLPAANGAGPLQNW

With `O=C(c1cccc(F)c1-c1ncccn1)N1C[C@@H]2CC[C@H]1[C@H](Nc1cnc(C(F)(F)F)cn1)C2` [Example 80, (3-fluoro-2-(pyrimidin-2-yl)phenyl)((1S,4R,6R)-6-((5-(trifluoromethyl)pyrazin-2-yl)amino)-2-azabicyclo[2.2.2]octan-2-yl)methanone], the Ki in assay [1] came to 9 nM; in assay [2] it was 7 nM; in assay [3] it was 456 nM.
